For four compounds, IC50 results are on record in ChEMBL document CHEMBL5385926, “Production of Kinanthraquinone D with Antimalarial Activity by Heterologous Gene Expression and Biotransformation in Streptomyces lividans TK23” (J Nat Prod, 2024).

Each structure is given as a SMILES string. “And” between values parts separate entries of the source, which are not always exact repeats. Identical values can stand only once.

Broadly, the IC50 is the concentration that inhibits the measured activity by half. Lower therefore signals inhibition by little substance.

Series [1] relates to Plasmodium falciparum. In words: Antimalarial activity against Plasmodium falciparum 3D7. It is filed as functional, organism-based.
Series [2] in a line: Cytotoxicity against human HeLa cells. It counts as toxicity, cell-based.
A short description of series [3]: Cytotoxicity against human HL-60 cells. It is filed as toxicity, cell-based.
Series [4] concerns Staphylococcus aureus. Kind of series: Antimicrobial activity against Staphylococcus aureus 209. It counts as functional, organism-based.

On to `COc1ccc2c(c1OC)C(=O)c1ccc(/C=C(/C)CC(N)=O)c(O)c1C2=O`, for which the half-inhibitory concentration (IC50) in series [1] is 1.21 µM and 0.5 µg/mL; in series [2] it was > 30 µM and > 11.4 µg/mL; in series [3] it was > 30 µM and > 11.4 µg/mL; in series [4] it was > 30 µM and > 11.4 µg/mL.
On to `COc1ccc2c(c1OC)C(=O)c1ccc(/C=C(/C)CC(=O)O)c(O)c1C2=O`, for which the IC50 in series [1] was 15 µM and 5.7 µg/mL; in series [2], > 30 µM and > 11.5 µg/mL; in series [3] it was > 30 µM and > 11.5 µg/mL; in series [4] it was 18 µM and 6.9 µg/mL.
In the case of `COc1ccc2c(c1OC)C(=O)c1ccc(/C=C(/C)CC(=O)NCC(=O)O)c(O)c1C2=O`, the IC50 in series [1] was > 30 µM and > 13.2 µg/mL; in series [2] it was > 30 µM and > 13.2 µg/mL; in series [3], > 30 µM and > 13.2 µg/mL; in series [4], > 30 µM and > 13.2 µg/mL.
`COc1ccc2c(c1OC)C(=O)c1c(O)cc(/C=C(/C)CC(N)=O)c(O)c1C2=O`: the IC50 in series [1] is 910 nM and 0.4 µg/mL; in series [2], > 30 µM and > 11.9 µg/mL; in series [3], > 30 µM and > 11.9 µg/mL; in series [4], > 30 µM and > 11.9 µg/mL.
